The source of these data is US11292811B2, “Long-acting prodrugs of entecavir, preparing methods and uses thereof” (priority 2017, dated 2022).

The conditions of data set [1]: cited from earlier work.
Data set [2] is described as follows: Pharmacokinetic test in the body of beagle (blood concentration of Entecavir after i.m. injection of prodrug suspension). The class given is in vivo. How it is done: Three conventional male beagles were used in the test, and they were forbidden to eat for 12 hours before administering drugs, and drank water freely meanwhile. Entecavir-5′-docosanoate (prepared in Example 4), Entecavir-5′-ursodesoxycholate (prepared in Example 5) and entecavir-5′-stearoylamidobutanoate (prepared in Example 19) were used to prepare a suspension, and were intramuscularly injected in a dosage of 0.508 mg/kg, 0.552 mg/kg, and 0.533 mg/kg respectively.
Treatment of blood plasma sample: 100 μL of blood plasma sample was added to 20 μL of methanol-water (V:V, 1:1) and 20 μL of interior label (2 μg/mL apigenin), and mixed through vortex. 200 μL of methanol was added and mixed through vortex, followed by being centrifuged under a centrifugal force of 14,000 g for 30 minutes. 10 μL of supernate was collected for analysis. The results are shown in Table 1, Table 2, and Table 3, as well as FIG. 1, FIG. 2 and FIG. 3.

For `C=C1[C@H](CO)[C@@H](O)C[C@@H]1n1cnc2c(=O)[nH]c(N)nc21` [Entecavir], in data set [1], the “Cmax decrease when administered with food” value is reported as 44-46% and the “Decrease of area under the curve (AUC) of the drug-time curve when administered with food” value is given as 18-20%. For `C=C1[C@H](COC(=O)CCCNC(=O)CCCCCCCCCCCCCCCCC)[C@@H](O)C[C@@H]1n1cnc2c(=O)[nH]c(N)nc21` [Entecavir-5′-stearoylamidobutanoate], in data set [2] (dog, in vivo), the “Release of injectable suspension after intramuscular injection” value (“Release of injectable suspension” below) is “released sustainably and steady”. As to `C=C1[C@H](COC(=O)CC[C@@H](C)[C@H]2CC[C@H]3[C@@H]4[C@@H](O)C[C@@H]5C[C@H](O)CC[C@]5(C)[C@H]4CC[C@]23C)[C@@H](O)C[C@@H]1n1cnc2c(=O)[nH]c(N)nc21` [Entecavir-5′-ursodesoxycholate], the “Release of injectable suspension” value in data set [2] (beagle, intramuscularly injected suspension) is “released sustainably and steady”.

Turning to Entecavir-5′-docosanoate, the “Release of injectable suspension” value in data set [2] (dog, in vivo) is “released sustainably and steady”.
